Key:
OCI-Ly10 cells [1] = experiment: RT-PCR (Taqman) of NF-kB target genes; assay type: cell-based; conditions: 100 nM, 4 hrs
OCI-Ly3 cells [2] = conditions: 10 nM, up to 4 hours
[3] = test system: OCI-Ly10 tumor xenografts; experiment: OCI-Ly10 tumor xenografts in female SCID mice; assay type: in vivo; conditions: once a day 3 mg/kg or 12 mg/kg, vs vehicle
Description: Female SCID mice were implanted with 10 million […] cells in Matrigel and tumors were allowed to reach 100 mm^3.

OCI-Ly10 cells [4] = experiment: Dose response of p-ERK by Western blotting; assay type: cell-based
OCI-Ly10 cells [5] = experiment: Constitutive IL-10 secretion by ELISA; assay type: cell-based
OCI-Ly10 cells [6] = conditions: 10 nM, up to 4 hours
OCI-Ly3 cells [7] = experiment: IgM/IgG stimulated calcium flux (Fura-2AM); assay type: cell-based; conditions: OCI-Ly3, inhibitor added 5 min before stimulation
Description: (§1) The kinetics of calcium flux were quantitated by optical spectroscopy following standard procedures.

OCI-Ly10 cells [8] = experiment: IgM/IgG stimulated calcium flux (Fura-2AM); assay type: cell-based; conditions: OCI-Ly10, inhibitor added 5 min before stimulation
Description: as §1

Compound	Myc expression (OCI-Ly10 cells [1])	Phosphorylation of AKT (OCI-Ly3 cells [2])	tumor growth [3]	concentration that decreases p-ERK (OCI-Ly10 cells [4])	Constitutive IL-10 secretion (OCI-Ly10 cells [5])	Phosphorylation of AKT (OCI-Ly10 cells [6])	Phosphorylation of ERK (OCI-Ly10 cells [6])	calcium flux after stimulation (OCI-Ly3 cells [7])	calcium flux after stimulation (OCI-Ly10 cells [8])
C=CC(=O)N1CCC[C@@H](n2nc(-c3ccc(Oc4ccccc4)cc3)c3c(N)ncnc32)C1 [Btk inhibitor]	maximally downregulated	inhibited	dose-dependent inhibition	1 nM	inhibited	rapidly abolished	rapidly abolished	dose-dependent reduction	dose-dependent reduction
CC[C@H](Nc1ncnc2[nH]cnc12)c1nc2cccc(F)c2c(=O)n1-c1ccccc1 [CAL-101, reference compound]	–	–	–	100 nM	–	–	–	–	–

From patent publication US20240065971A1, “METHODS OF TREATING ABC-DLBCL USING INHIBITORS OF BRUTONS TYROSINE KINASE” (Pharmacyclics LLC, priority 2010, published 2024)
